Results as given in patent US20140248218A1, “ROS-SENSITIVE FLUORESCENT PROBES” (The Regents of the University of California, priority 2013, published 2014).

Legend:
[1] = Fluorescence response of the probes to H2O2 (luminescence spectroscopy, fluorescence turn-on); assay type: physicochemical; conditions: for increase in fluorescence in response to excess H2O2 (fluorescence turn-on): 1 μM probe, 50 mM HEPES pH 7.5, H2O2 300 eq (300 μM), ratio of integrated final and initial emission; for change of emission on treatment with H2O2: 50 mM HEPES pH 7.5; for relation of relative emission to H2O2 concentration: 15 min incubation with H2O2, integrated emission
Protocol: Fluorescence emission spectra were recorded with a Perkin-Elmer LS-55 fluorescence spectrometer. To a 2.0 mL solution of probe of varying concentrations in HEPES buffer (50 mM, pH 7.5) was added H2O2 in HEPES to monitor fluorescence turn-on. Spectra were monitored over time at room temperature with quartz cuvettes.
To quantitate the fluorescence turn-on, a sample of each probe (1 μM in 50 mM HEPES pH 7.5) was prepared. An excess of H2O2 (300 eq, 300 μM) was added to the latent fluorophore and spectra were recorded until no increase in fluorescence intensity was observed, signifying a complete reaction. The collected initial and final emission spectrum were integrated, and the ratio reports the fluorescence turn on.
FBBBE and CBBE were evaluated for H2O2 sensitivity under simulated physiological conditions (50 mM HEPES, pH 7.5). For FBBBE, the installation of the benzyl protecting group forces the compound to remain in the closed lactone form, rendering FBBBE (and FBn) nonfluorescent. […] Along with the observed fluorescence increase, the absorption spectrum of FBBBE considerably changed upon H2O2 addition with a large increase in the visible absorption band (λmax=494 nm). The final spectrum recorded was identical to that of an authentic sample of fluorescein, providing additional proof that the probe was undergoing complete deprotection to the desired product (FIG. 7). […] FBBBE was incubated with different concentrations of H2O2 for 15 min and then the emission spectrum was collected.
The coumarin-based compound, CBBE, was nonfluorescent in the absence of H2O2. […] (FIG. 12).
(§1) Additional studies were performed to quantify the fluorescence turn-on for each probe to directly compare the sensitivity to H2O2. […] To determine the sensitivity of these probes in a more quantitative fashion, pseudo first-order kinetic measurements were performed using UV-Vis absorption spectroscopy. The observed rate constants for FBBBE and CBBE activation by H2O2 were kobs=3.1×10-5 s-1 and kobs=4.6×10-3 s-1, respectively. It was determined that the deprotection of CBBE was much faster than FBBBE. This may be likely due to the fact that FBBBE contains two boronic ester triggers that are required for complete release of the fluorophore. Recently, it has been shown that boronic ester based probes can be sensitive to other biologically relevant ROS, such as hypochlorite (—OCl) and peroxynitrite (—ONOO).^[26]

[2] = Solubility in aqueous buffer; assay type: physicochemical; conditions: ~1% DMSO (by volume), micromolar concentrations
Source text: The corresponding control compound lacking the boronic ester trigger was also synthesized for evaluation (FIG. 3, CBn). Both CBBE and FBBBE were quite soluble in aqueous buffer, using only ˜1% DMSO (by volume) when preparing samples at micromolar concentrations.

RAW 264.7 cells = assay: Confocal fluorescence imaging of H2O2 in RAW 264.7 macrophages; assay type: cell-based, Murine; conditions: for fluorescence in cells treated with PBS, LPS or H2O2: 50 μM compound 1 h, fixed RAW 264.7 cells
Protocol: RAW 264.7 macrophages were grown in DMEM supplemented with 10% heat-inactivated fetal bovine serum, 2 mM L-glutamine, 100 μg/mL penicillin, and 100 μg/mL streptomycin (Life Technologies, Carlsbad, Calif.). For confocal microscopy, the RAW 264.7 cells were seeded at 250,000 in glass bottom 35 mm dishes (MatTek Corporation, Ashland, Mass.) and post-adhering (5 h), some dishes were treated with 1 μg/mL of LPS (Sigma-Aldrich, St. Louis, Mo.) for 24 h. Other dishes were treated the next day after plating with either 100 μM H2O2 for 1 h or PBS for 1 h. Cells were washed twice with PBS and fixed in ice-cold 95% ethanol for 15 min. Cells were twice rinsed with PBS and incubated with either 50 μM probe (FBBBE) or 50 μM control (FBn) for 1 h at room temperature. Cells were washed twice with PBS and coverslips were mounted over cells using Aqua Mount (Thermo Scientific, Waltham, Mass.). Confocal images were obtained at 80× magnification on an Olympus FV1000 confocal laser scanning microscope. Images were processed using ImageJ software (NIH).
FBBBE was examined for H2O2 detection in biological samples via confocal microscopy. Murine macrophage RAW 264.7 cells were treated with PBS buffer (unstimulated cells), lipopolysaccharide (LPS, stimulated cells), or with exogenous H2O2, followed by incubation with either FBBBE (FIG. 5a-c) or FBn (FIG. 5d-f). The inflammatory effects of LPS in macrophages are well established and result in a burst of reactive oxygen species and reactive nitrogen intermediates among other inflammatory signatures.^[27] […] The cells are washed and fixed prior to incubating with the probe.

mouse brain = assay: Confocal fluorescence imaging of H2O2 in mouse brain tissue sections (ex vivo); conditions: for fluorescence turn-on in brain tissue: 50 μM compound 1 h, sections incubated with PBS or 100 μM H2O2
Protocol: (§2) 3-4 week old female C57BL/6J mice were purchased from Jackson Laboratory (Bar Harbor, Me.). Mice were sacrificed and perfused with sterile PBS. The brain and spinal cord were harvested and imbedded in Tissue-Tek® OCT Compound (Sakura Finetek USA, Torrance, Calif.) and frozen in dry ice before storage at −80° C. All animal studies were reviewed and approved by the University of California, San Diego Institutional Animal Care and Use Committee (La Jolla, Calif.).
(§3) For confocal microscopy, the frozen tissue was cut into 10-μm sections on a Leica cryomicrotome and mounted on slides. Tissue sections were fixed in ice-cold 95% ethanol for 15 min and rehydrated in PBS for 5 min at room temperature in a humidity chamber. Tissue sections were either incubated with PBS or 100 μM H2O2 for 1 h at room temperature in a humidity chamber, followed by a 1 h incubation with either 50 μM probe (FBBBE) or 50 μM control (FBn) and a 10 min nuclear stain (DAPI, 4′,6-diamidino-2-phenylindole). The sections were rinsed in PBS and hydrated in water. Coverslips were mounted using Aqua Mount (Thermo Scientific, Waltham, Mass.). Confocal images were obtained at 40× or 80× magnification on an Olympus FV1000 confocal laser scanning microscope. Images were processed using ImageJ software.
Cellular studies were extended to a more physiologically relevant model for H2O2 detection. H2O2 is particularly active in the brain and neuronal tissue, triggered by the metabolism of neurotransmitters.^[28] The brain and spinal cord from 3-4 week old female C57BL/6J mice were excised, frozen in OCT medium, and 10 μm sagittal cryosections were prepared for staining with FBBBE and FBn. At this age, the mice undergo extensive neuronal development and remodeling. Such activity has been associated with higher levels of neurotransmitter activity and ROS in both neurons and microglial cells in the brain. Consistent with the previous experiments, the sections were either incubated with PBS (unstimulated) or H2O2 (FIG. 6). […]

mouse spinal cord = assay: Confocal fluorescence imaging of H2O2 in mouse spinal cord tissue sections (ex vivo); conditions: 50 μM probe 1 h
Protocol: as §2
as §3, with “Coverslips were mounted using Aqua Mount (Thermo Scientific, Waltham, Mass.). Confocal images were obtained at 40× or 80× magnification on an Olympus FV1000 confocal laser scanning microscope. Images were processed using ImageJ software.” left out
To further investigate whether FBBBE is activated by truly endogenous levels of H2O2, the probe was evaluated in the spinal cord. […] The lack of fluorescence signal from the H2O2-treated samples may be due to an inability of FBBBE to penetrate the spinal cord tissues, which is then subsequently washed away before the image is taken.

[3] = Fluorescent response of probe to hypochlorite compared with H2O2; assay type: physicochemical; conditions: 1 μM probe, 100 μM ROS, 50 mM HEPES pH 7.5, 25° C.
Protocol: FIG. 16. Histograms of fluorescent responses of 1 μM FBBBE to hydrogen peroxide (H2O2) and hypochlorite (OCl^−): (Data shown are for 100 μM of each ROS) hydrogen peroxide and hypochlorite were delivered from 30% and 5% aqueous solutions, respectively and spectra were acquired in 50 mM HEPES (pH 7.5) wherein all data were obtained after incubation with the appropriate ROS at 25° C.; the collected emission was integrated between […] (λex=480 nm), and bars represent relative responses (left to right) at 5 (white), 15 (light gray), 30 (gray), 45 (dark gray), and 60 min (black) after addition of ROS.
as §1, with “Recently, it has been shown that boronic ester based probes can be sensitive to other biologically relevant ROS, such as hypochlorite (—OCl) and peroxynitrite (—ONOO).^[26]” left out

[4] = cited from earlier work

## CC1(C)OB(c2ccc(COc3ccc4c(c3)Oc3cc(OCc5ccc(B6OC(C)(C)C(C)(C)O6)cc5)ccc3C43OC(=O)c4ccccc43)cc2)OC1(C)C [FBBBE, 3′,6′-bis((4-(4,4,5,5-tetramethyl-1,3,2-dioxaborolan-2-yl)benzyl)oxy)-3H-spiro[isobenzofuran-1,9′-xanthen]-3-one]
[1]
  increase in fluorescence in response to excess H2O2 (fluorescence turn-on): 52 fold
  change of emission on treatment with H2O2: large increase in fluorescence
  relation of relative emission to H2O2 concentration: linear correlation
[2]
  solubility in aqueous buffer: quite soluble
RAW 264.7 cells
  fluorescence in cells treated with PBS, LPS or H2O2: observed in all cells
RAW 264.7 cells; 50 μM probe, 1 μg/mL LPS 24 h, p<0.001
  mean fluorescence, PBS or H2O2 vs LPS treated cells: statistically different
RAW 264.7 cells; 50 μM probe, 100 μM H2O2 1 h
  mean fluorescence, PBS vs H2O2 treated cells: not statistically different
Mouse brain
  fluorescence turn-on in brain tissue: sufficient to activate the probe
Mouse brain; 50 μM probe, 100 μM H2O2 vs PBS
  effect of exogenous H2O2 on fluorescence in brain tissue: did not alter the fluorescence levels observed
Mouse spinal cord; 100 μM H2O2, compared to brain tissue
  fluorescence in spinal cord tissue with exogenous H2O2: minimal amount of fluorescence
Mouse spinal cord; PBS
  probe activation in unstimulated spinal cord tissue: essentially inactive
[3]
  sensitivity to other ROS (OCl-) compared to H2O2: less sensitive

## O=c1ccc2ccc(OCc3ccccc3)cc2o1 [CBn, 7-(benzyloxy)-2H-chromen-2-one, reference compound]
[1]
  change of emission on treatment with H2O2: no change

## CC1(C)OB(c2ccc(COc3ccc4ccc(=O)oc4c3)cc2)OC1(C)C [CBBE, 7-((4-(4,4,5,5-tetramethyl-1,3,2-dioxaborolan-2-yl)benzyl)oxy)-2H-chromen-2-one]
[1]
  increase in fluorescence in response to excess H2O2 (fluorescence turn-on): 57 fold
  change of emission on treatment with H2O2: quickly turned on
  relation of relative emission to H2O2 concentration: linear correlation
[2]
  solubility in aqueous buffer: quite soluble

## O=C1OC2(c3ccc(OCc4ccccc4)cc3Oc3cc(OCc4ccccc4)ccc32)c2ccccc21 [FBn, 3′,6′-bis(benzyloxy)-3H-spiro[isobenzofuran-1,9′-xanthen]-3-one, reference compound]
[1]
  change of emission on treatment with H2O2: does not show any changes
RAW 264.7 cells
  fluorescence in cells treated with PBS, LPS or H2O2: no turn on of fluorescence in any of the cells
Mouse brain
  fluorescence turn-on in brain tissue: no fluorescence turn on was observed

## O=C1OC2(c3ccc(O)cc3Oc3cc(O)ccc32)c2ccccc21 [Fluorescein]
[4]
  water solubility: excellent water solubility
